{
  "source": "patent US5827838A",
  "about": "“Method for the treatment of diseases related with protein isoprenylation” (priority 1994, dated 1998)",
  "key": {"[1]": {"target": "T1, protein;farnesyl transferase (Oryctolagus cuniculus, UniProt G1SFC8+G1T7D9)", "test": "Inhibition of farnesylation of H-ras protein (p21ras precursor) by farnesyl:protein transferase in rabbit reticulocyte lysate, [3H]-FPP incorporation", "conditions": "different amounts of compound"}, "[2]": {"target": "T1, protein;farnesyl transferase", "test": "Inhibition of protein;farnesyl transferase using C-terminal octapeptide pre-p21N-ras coupled to Sepharose beads as substrate", "type": "biochemical, rabbit", "parameters": "substrate N-ras C-terminal octapeptide on Sepharose beads"}, "squalene synthase": {"target": "T2, squalene synthase (Rattus norvegicus, UniProt Q02769)", "T2 construct": "squalene synthase in rat liver microsomal preparations; from tissue; host or cells: rat liver microsomes", "T2 sequence (Q02769 1-416)": "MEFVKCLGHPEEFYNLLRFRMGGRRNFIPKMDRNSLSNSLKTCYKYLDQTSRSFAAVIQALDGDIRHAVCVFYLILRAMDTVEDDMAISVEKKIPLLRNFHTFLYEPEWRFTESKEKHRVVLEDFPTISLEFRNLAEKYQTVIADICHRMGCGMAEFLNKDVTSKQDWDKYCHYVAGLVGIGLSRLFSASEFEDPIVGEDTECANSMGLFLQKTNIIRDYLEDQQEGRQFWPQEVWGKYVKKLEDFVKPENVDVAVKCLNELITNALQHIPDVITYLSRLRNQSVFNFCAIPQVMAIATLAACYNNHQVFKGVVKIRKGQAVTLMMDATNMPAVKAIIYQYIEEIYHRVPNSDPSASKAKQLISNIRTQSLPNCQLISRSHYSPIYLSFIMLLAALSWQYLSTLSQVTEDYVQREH", "test": "Inhibition of squalene synthase in rat liver microsomal preparations", "type": "biochemical", "conditions": "at dosage amounts inhibiting p21ras farnesyl transferase"}, "Rat-1.H-ras13 cells": {"system": "Rat-1.H-ras13 cells", "test": "Inhibition of cell proliferation of transformed Rat-1.H-ras13 cells (cell count, trypan blue exclusion)", "type": "cell-based", "conditions": "10 days", "protocol": "Cells were cultured for 10 days in DMEM supplemented with 10% fetal calf serum in the presence of 0, 25 or 100 μM of compound 3. At day 0, cells were plated in monolayer culture at 5×10^3 cells per well (6 well plates). On day 3 and 7, cells were re-fed with the same medium. On day 10, cells were harvested by trypsinization and counted using a standard hemocytometer chamber. Values are the mean of triplicate countings of duplicate incubations. In these ten days control cells had been proliferated exponentially to 1.94×10^6 ±0.04×10^6 cells per well."}, "[3]": {"system": "farnesylation of p21ras in Rat-1.H-ras13 cells", "type": "cell-based, rat cells overexpressing human p21Ha-ras", "conditions": "24 h", "protocol": "It was shown now that compound 3 acts as a protein: farnesyl transferase inhibitors in cultured cells. For this purpose Rat-1.H-ras13 cells, which overexpress human p21^Ha-ras (Downword J. et al., Proc. Natl. Acad. Sci. U.S.A. 1988; 85; 5774-5778), were used. These cells were incubated with [^3 H]-mevalonate and 0, 0.1, 1, 10 and 100 μM of compound 3 for 24 h in DMEM containing 1% human serum albumin and 2.5 μM of simvastatin.\nThereafter cells were lysed in 300 μl PBS supplemented with 1% Triton X-100, 0.5% sodium deoxycholate, and the protease inhibitors phenylmethylsulfonylfluoride (1 mM), leupeptine (50 μg/ml), pepstatin A (50 μg/ml) and trasylol (300 K.I.U./ml), and p21^ras was collected on immobilized monoclonal antibody Y13-259 (Osterop A.P.R.M. et al., J. Biol. Chem. 1992; 267; 14647-14653). After separation by SDS polyacrylamide gel electrophoresis the [^3 H]-labelled polypeptides were visualized by autoradiography."}, "[4]": {"conditions": "read-out: IC50, inhibition of protein;farnesyl transferase; octapeptide pre-p21N-ras on Sepharose beads as substrate"}},
  "note": "Read-outs that look alike come from different tables or passages of the source.",
  "data": [
    {"smiles": "CC(C)=CCCC(C)=CCCC(C)=CCCP(=O)(O)OP(=O)(O)O", "note": "[compound 1, farnesylmethylphosphonophosphate]", "values": [
      {"measurement": "enzyme activity (farnesyl:protein transferase), result in words", "setting": "[1]", "result": "concentration-dependently decreased"},
      {"measurement": "IC50", "setting": "[2]; [4]", "result": "930 ± 230", "unit": "nM"},
      {"measurement": "inhibition of squalene synthesis at amounts that inhibit p21ras farnesyl transferase, result in words", "setting": "squalene synthase", "result": "without inhibiting squalene synthesis"}
    ]},
    {"smiles": "CC(C)=CCCC(C)=CCCC(C)=CCC(CC=C(C)CCC=C(C)CCC=C(C)C)(P(=O)(O)O)P(=O)(O)O", "note": "[bisfarnesylmethylenebis(phosphonic acid), reference compound]", "values": [
      {"measurement": "IC50", "setting": "[2]; octapeptide pre-p21N-ras on Sepharose beads as substrate; read-out: IC50, inhibition of protein;farnesyl transferase", "result": "147000 ± 37000", "unit": "nM"}
    ]},
    {"smiles": "CC(C)=CCCC(C)=CCCC(C)=CCOCP(=O)(O)OP(=O)(O)O", "note": "[compound 5, farnesyloxymethylphosphono-phosphate]", "values": [
      {"measurement": "IC50", "setting": "[2]; [4]", "result": "520 ± 70", "unit": "nM"}
    ]},
    {"smiles": "CC(C)=CCCC(C)=CCCC(C)=CCP(=O)(O)OP(=O)(O)O", "note": "[compound 3, farnesylphosphonophosphate]", "values": [
      {"measurement": "non-viable cells, trypan blue exclusion", "setting": "Rat-1.H-ras13 cells; 0, 25 or 100 μM", "result": "no non-viable cells"},
      {"measurement": "inhibition of proliferation of transformed cells, result in words", "setting": "Rat-1.H-ras13 cells; 25 and 100 μM", "result": "concentration-dependently inhibits the proliferation of transformed cells in culture"},
      {"measurement": "inhibition at 25 µM", "setting": "Rat-1.H-ras13 cells; Rattus norvegicus, 240 h, 25 μM, read-out: reduction in cell numbers (of control values)", "result": 32.5, "unit": "%"},
      {"measurement": "inhibition at 100 µM", "setting": "Rat-1.H-ras13 cells; Rattus norvegicus, 240 h, 100 μM, read-out: reduction in cell numbers (of control values)", "result": 49.5, "unit": "%"},
      {"measurement": "enzyme activity (farnesyl:protein transferase), result in words", "setting": "[1]", "result": "concentration-dependently decreased"},
      {"measurement": "IC50", "setting": "[2]; [4]", "result": "340 ± 50", "unit": "nM"},
      {"measurement": "radioactivity measured in p21ras / farnesylation of ras protein, result in words", "setting": "[3]; 100 μM", "result": "no radioactivity was measured, showing that the farnesylation of the ras protein was totally blocked"},
      {"measurement": "IC50", "setting": "[3]; DMEM with 1% human serum albumin and 2.5 μM simvastatin, read-out: IC50, inhibition of farnesylation of p21ras in cells", "result": "1000 to 10000", "unit": "nM"},
      {"measurement": "radioactivity incorporated into p21ras, result in words", "setting": "[3]; increasing concentrations (0.1, 1, 10, 100 μM)", "result": "less radioactivity was incorporated into p21^ras"},
      {"measurement": "inhibition of squalene synthesis at amounts that inhibit p21ras farnesyl transferase, result in words", "setting": "squalene synthase", "result": "without inhibiting squalene synthesis"}
    ]},
    {"smiles": "CC(C)=CCCC(C)=CCCC(C)=CCC(OCP(=O)(O)O)P(=O)(O)O", "note": "(stereo not shown) [compound 6, farnesyl(phosphono)methoxymethylphosphonic acid]", "values": [
      {"measurement": "IC50", "setting": "[2]; read-out: IC50, inhibition of protein;farnesyl transferase; octapeptide pre-p21N-ras on Sepharose beads as substrate; unit μm [sic]", "result": "580 ± 440", "unit": "nM"}
    ]}
  ]
}
